Laboratory results as given in BigSolDB 2.1.

O=C(O)CCCC(=O)O
Details | solubility (mole fraction)
in cyclohexanone, 295.35 K | 0.17
in cyclohexanone, 299.35 K | 0.184
in cyclohexanone, 303.65 K | 0.198
in cyclohexanone, 307.75 K | 0.228
in cyclohexanone, 311.85 K | 0.251
in methanol, 287.05 K | 0.204
in methanol, 295.55 K | 0.239
in methanol, 299.15 K | 0.256
in methanol, 302.85 K | 0.274
in methanol, 306.95 K | 0.294
in methanol, 310.15 K | 0.316
in methanol, 313.45 K | 0.34
in methanol, 317.15 K | 0.37
in methanol, 321.15 K | 0.403
in methanol, 324.85 K | 0.436
in methanol, 328.95 K | 0.472
